Reference: ChEMBL document CHEMBL1201862, “PubChem BioAssay data set” (2004)
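Compound exposure: 48 hours, 5 concentrations, 96-well plates. GI50 = concentration required for 50% inhibition of growth.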 Calls of active or inactive are those of the source. Cut-off read from the data, not from the text of the source: active = GI50 up to about 1.1 µM and inactive = higher.

Key:
Assay in all cases: NCI tumour cell line growth inhibition, 48 h
UO-31 = tested on: UO-31
SNB-75 = tested on: SNB-75
LOX IMVI = tested on: LOX IMVI
A498 = tested on: A498
HCT-116 = tested on: HCT-116
NCI-H226 = tested on: NCI-H226
NCI-H460 = tested on: NCI-H460
NCI/ADR-RES = tested on: NCI/ADR-RES
COLO 205 = tested on: COLO 205
UACC-62 = tested on: UACC-62
T47D = tested on: T47D
NCI-H23 = tested on: NCI-H23
Malme-3M = tested on: Malme-3M
KM12 = tested on: KM12
CAKI-1 = tested on: CAKI-1
HCT-15 = tested on: HCT-15
HCC 2998 = tested on: HCC 2998
IGROV-1 = tested on: IGROV-1
M14 = tested on: M14
MDA-MB-435 = tested on: MDA-MB-435
HT-29 = tested on: HT-29
SF-295 = tested on: SF-295
HOP-92 = tested on: HOP-92
SK-MEL-5 = tested on: SK-MEL-5
TK-10 = tested on: TK-10
OVCAR-8 = tested on: OVCAR-8
MDA-MB-231 = tested on: MDA-MB-231
MCF7 = tested on: MCF7
SK-OV-3 = tested on: SK-OV-3
DU-145 = tested on: DU-145
MOLT-4 = tested on: MOLT-4
K562 = tested on: K562
SK-MEL-28 = tested on: SK-MEL-28
A549 = tested on: A549
SN12C = tested on: SN12C
UACC-257 = tested on: UACC-257
NCI-H522 = tested on: NCI-H522
EKVX = tested on: EKVX
SR = tested on: SR
CCRF-CEM = tested on: CCRF-CEM
ACHN = tested on: ACHN
RXF 393 = tested on: RXF 393
PC-3 = tested on: PC-3
MDA-N = tested on: MDA-N
HOP-62 = tested on: HOP-62
RPMI-8226 = tested on: RPMI-8226
OVCAR-4 = tested on: OVCAR-4
OVCAR-3 = tested on: OVCAR-3
SF-539 = tested on: SF-539
HL-60 = tested on: HL-60
SNB-19 = tested on: SNB-19
SW-620 = tested on: SW-620
SF-268 = tested on: SF-268
786-0 = tested on: 786-0
OVCAR-5 = tested on: OVCAR-5
U-251 = tested on: U-251
SK-MEL-2 = tested on: SK-MEL-2

OCC1NC(CO)C(O)C1O (stereo not given)
GI50 (UO-31): > 100 µM (inactive)
GI50 (SNB-75): > 100 µM (inactive)
GI50 (LOX IMVI): > 100 µM (inactive)
GI50 (A498): > 100 µM (inactive)
GI50 (HCT-116): > 100 µM (inactive)
GI50 (NCI-H226): > 100 µM (inactive)
GI50 (NCI-H460): > 100 µM (inactive)
GI50 (NCI/ADR-RES): > 100 µM (inactive)
GI50 (COLO 205): > 100 µM (inactive)
GI50 (UACC-62): > 100 µM (inactive)
GI50 (T47D): > 100 µM (inactive)
GI50 (NCI-H23): > 100 µM (inactive)
GI50 (Malme-3M): > 100 µM (inactive)
GI50 (KM12): > 100 µM (inactive)
GI50 (CAKI-1): > 100 µM (inactive)
GI50 (HCT-15): > 100 µM
GI50 (HCC 2998): > 100 µM (inactive)
GI50 (IGROV-1): > 100 µM (inactive)
GI50 (M14): > 100 µM (inactive)
GI50 (MDA-MB-435): > 100 µM (inactive)
GI50 (HT-29): > 100 µM (inactive)
GI50 (SF-295): > 100 µM (inactive)
GI50 (HOP-92): > 100 µM (inactive)
GI50 (SK-MEL-5): > 100 µM (inactive)
GI50 (TK-10): > 100 µM (inactive)
GI50 (OVCAR-8): > 100 µM (inactive)
GI50 (MDA-MB-231): > 100 µM (inactive)
GI50 (MCF7): > 100 µM (inactive)
GI50 (SK-OV-3): > 100 µM (inactive)
GI50 (DU-145): > 100 µM (inactive)
GI50 (MOLT-4): > 100 µM (inactive)
GI50 (K562): > 100 µM (inactive)
GI50 (SK-MEL-28): > 100 µM (inactive)

CSc1ncnc2c1ncn2CCC(=O)OC(C)(C)C
GI50 (A549): > 100 µM (inactive)
GI50 (UO-31): > 100 µM (inactive)
GI50 (SN12C): > 100 µM (inactive)
GI50 (UACC-257): > 100 µM (inactive)
GI50 (NCI-H522): > 100 µM (inactive)
GI50 (SNB-75): > 100 µM (inactive)
GI50 (EKVX): > 100 µM (inactive)
GI50 (LOX IMVI): > 100 µM (inactive)
GI50 (A498): > 100 µM (inactive)
GI50 (HCT-116): > 100 µM (inactive)
GI50 (NCI-H226): > 100 µM (inactive)
GI50 (SR): > 100 µM (inactive)
GI50 (NCI-H460): > 100 µM (inactive)
GI50 (CCRF-CEM): > 100 µM (inactive)
GI50 (NCI/ADR-RES): > 100 µM (inactive)
GI50 (COLO 205): > 100 µM (inactive)
GI50 (T47D): > 100 µM (inactive)
GI50 (NCI-H23): > 100 µM (inactive)
GI50 (Malme-3M): > 100 µM (inactive)
GI50 (KM12): > 100 µM (inactive)
GI50 (CAKI-1): > 100 µM (inactive)
GI50 (HCC 2998): > 100 µM (inactive)
GI50 (IGROV-1): > 100 µM (inactive)
GI50 (ACHN): > 100 µM (inactive)
GI50 (RXF 393): > 100 µM (inactive)
GI50 (PC-3): > 100 µM (inactive)
GI50 (M14): > 100 µM (inactive)
GI50 (MDA-N): > 100 µM (inactive)
GI50 (HOP-62): > 100 µM (inactive)
GI50 (MDA-MB-435): > 100 µM (inactive)
GI50 (HT-29): > 100 µM (inactive)
GI50 (SF-295): > 100 µM (inactive)
GI50 (RPMI-8226): > 100 µM (inactive)
GI50 (HOP-92): > 100 µM (inactive)
GI50 (OVCAR-4): > 100 µM (inactive)
GI50 (SK-MEL-5): > 100 µM (inactive)
GI50 (TK-10): > 100 µM (inactive)
GI50 (OVCAR-8): > 100 µM (inactive)
GI50 (OVCAR-3): > 100 µM (inactive)
GI50 (MDA-MB-231): > 100 µM (inactive)
GI50 (MCF7): > 100 µM (inactive)
GI50 (SF-539): > 100 µM (inactive)
GI50 (HL-60): > 100 µM (inactive)
GI50 (SNB-19): > 100 µM (inactive)
GI50 (SK-OV-3): > 100 µM (inactive)
GI50 (DU-145): > 100 µM (inactive)
GI50 (MOLT-4): > 100 µM (inactive)
GI50 (SW-620): > 100 µM (inactive)
GI50 (SF-268): > 100 µM (inactive)
GI50 (K562): > 100 µM (inactive)
GI50 (SK-MEL-28): > 100 µM (inactive)
GI50 (786-0): > 100 µM (inactive)
GI50 (OVCAR-5): > 100 µM (inactive)

C=C(C(=O)OC)[C@H]1CC/C(C)=C/CC/C(C)=C/CC[C@@]2(C)O[C@@H]2C1
GI50 (A549): 14.9 µM (inactive)
GI50 (UO-31): 19 µM (inactive)
GI50 (SN12C): 16.9 µM (inactive)
GI50 (UACC-257): 23.8 µM (inactive)
GI50 (NCI-H522): 18.2 µM (inactive)
GI50 (SNB-75): 65.2 µM (inactive)
GI50 (U-251): 20.1 µM (inactive)
GI50 (EKVX): 18.7 µM (inactive)
GI50 (LOX IMVI): 15.5 µM (inactive)
GI50 (A498): 22.1 µM (inactive)
GI50 (HCT-116): 15.4 µM (inactive)
GI50 (NCI-H226): 19.9 µM (inactive)
GI50 (CCRF-CEM): 13.1 µM (inactive)
GI50 (NCI/ADR-RES): 16.4 µM (inactive)
GI50 (COLO 205): 15 µM (inactive)
GI50 (UACC-62): 11.9 µM (inactive)
GI50 (T47D): 16.3 µM (inactive)
GI50 (NCI-H23): 19.3 µM (inactive)
GI50 (SK-MEL-2): 15.3 µM (inactive)
GI50 (Malme-3M): 25.1 µM (inactive)
GI50 (KM12): 16.5 µM (inactive)
GI50 (CAKI-1): 13.2 µM (inactive)
GI50 (HCT-15): 16.3 µM
GI50 (HCC 2998): 16 µM (inactive)
GI50 (IGROV-1): 16 µM (inactive)
GI50 (ACHN): 19.8 µM (inactive)
GI50 (RXF 393): 14.9 µM (inactive)
GI50 (PC-3): 18 µM (inactive)
GI50 (M14): 21.9 µM (inactive)
GI50 (MDA-N): 18.2 µM (inactive)
GI50 (HOP-62): 20.7 µM (inactive)
GI50 (MDA-MB-435): 22.9 µM (inactive)
GI50 (HT-29): 17.3 µM (inactive)
GI50 (SF-295): 11.5 µM (inactive)
GI50 (RPMI-8226): 14.4 µM (inactive)
GI50 (HOP-92): 16.4 µM (inactive)
GI50 (OVCAR-4): 26.8 µM (inactive)
GI50 (SK-MEL-5): 10.3 µM (inactive)
GI50 (TK-10): 21.5 µM (inactive)
GI50 (OVCAR-8): 13.8 µM (inactive)
GI50 (OVCAR-3): 17.7 µM (inactive)
GI50 (MDA-MB-231): 15.9 µM (inactive)
GI50 (MCF7): 17 µM (inactive)
GI50 (SF-539): 17.9 µM (inactive)
GI50 (HL-60): 13 µM (inactive)
GI50 (SNB-19): > 100 µM (inactive)
GI50 (SK-OV-3): 43.7 µM (inactive)
GI50 (DU-145): 21.9 µM (inactive)
GI50 (MOLT-4): 15.8 µM (inactive)
GI50 (SW-620): 18.5 µM (inactive)
GI50 (K562): 11.9 µM (inactive)
GI50 (SK-MEL-28): 34.6 µM (inactive)
GI50 (786-0): 15.5 µM (inactive)
GI50 (OVCAR-5): 23.4 µM (inactive)
